# Test system: male C57BL6 mice
# Experiment: Mouse head-twitch response (HTR)
# Assay type: in vivo
# Details: mice pretreated with M100907 prior to compound
# Procedure: Male, C57BL/6J mice (body weight range 20-30 g) were dosed with the appropriate dose of test article, and following a 1-minute pre-treatment time, placed in individual observation chambers. Animals were visually assessed for the incidence head twitches continuously over a 1 hr period. Head twitches were defined as a rapid jerk of the head which was not elicited by an external tactile stimulus (Come and Pickering, Psychopharmacologia, 1967, 11(1): 65-78). Each head twitch was individually counted by a trained observer, and the data expressed as the mean±SEM of 6-10 mice per group. Mice were used in a single experiment only.
# Dose response (0.3-3 mg/kg SC) 5-HT2A signs of WDS/BMC measured over 1h. Also locomotor activity and other 5-HT receptor signs measured. For example, the effect on various doses of exemplary compound of Formula I-B, I-B-1, on head-twitch response (HTR) in male C57BL6 mice was studied. The mice were treated with exemplary compound I-B-1 (0.03-10 mg/kg) by SC route in a vehicle of 10% DMSO in Saline (2 drops HCl (0.1M)+1 drop Tween 80 were added), and the total number of head twitches were recorded over a one hour period. Data is expressed as mean±SEM (see, FIG. 1).
smiles,measurement,value
COc1cccc([C@H](O)C2CCN(CCc3ccc(F)cc3)CC2)c1OC [Compound M100907],effect of pretreatment with 5-HT2AR antagonist on HTR induced by compounds of Formula I-B,completely blocked

# Reference: US20240166630A1, “INDOLE DERIVATIVES AS SEROTONERGIC AGENTS USEFUL FOR THE TREATMENT OF DISORDERS RELATED THERETO” (Mindset Pharma Inc., priority 2021, published 2024)
